The target in assay [1] is T1, Discoidin domain-containing receptor 2 (Homo sapiens, UniProt Q16832).
T1 sequence (Q16832 whole entry): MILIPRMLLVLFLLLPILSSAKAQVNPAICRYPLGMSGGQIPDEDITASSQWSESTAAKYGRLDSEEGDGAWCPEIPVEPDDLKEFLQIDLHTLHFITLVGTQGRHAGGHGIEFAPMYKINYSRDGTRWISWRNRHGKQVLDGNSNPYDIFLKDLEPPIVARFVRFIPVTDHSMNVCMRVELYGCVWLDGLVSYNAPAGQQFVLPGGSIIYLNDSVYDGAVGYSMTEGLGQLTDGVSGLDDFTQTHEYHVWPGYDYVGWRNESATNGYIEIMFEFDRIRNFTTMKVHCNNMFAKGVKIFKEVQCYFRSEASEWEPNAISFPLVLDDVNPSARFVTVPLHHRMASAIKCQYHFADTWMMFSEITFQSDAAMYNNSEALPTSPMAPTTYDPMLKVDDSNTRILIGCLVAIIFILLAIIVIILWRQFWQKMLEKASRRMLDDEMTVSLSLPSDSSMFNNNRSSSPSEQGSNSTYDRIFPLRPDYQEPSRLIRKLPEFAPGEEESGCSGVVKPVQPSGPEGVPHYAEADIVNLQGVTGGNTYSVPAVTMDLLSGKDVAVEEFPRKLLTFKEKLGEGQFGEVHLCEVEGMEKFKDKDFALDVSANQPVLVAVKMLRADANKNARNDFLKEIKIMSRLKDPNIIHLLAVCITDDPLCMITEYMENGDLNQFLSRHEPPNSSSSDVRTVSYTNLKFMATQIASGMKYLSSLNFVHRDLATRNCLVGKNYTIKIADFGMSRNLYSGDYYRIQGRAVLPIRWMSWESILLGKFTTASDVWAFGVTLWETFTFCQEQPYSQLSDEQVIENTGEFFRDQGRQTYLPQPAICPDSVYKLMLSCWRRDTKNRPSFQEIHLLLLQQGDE

The target of assay [2] is Mitogen-activated protein kinase kinase kinase kinase 5 (Homo sapiens, UniProt Q9Y4K4).
Chain of Mitogen-activated protein kinase kinase kinase kinase 5 (Q9Y4K4 whole entry): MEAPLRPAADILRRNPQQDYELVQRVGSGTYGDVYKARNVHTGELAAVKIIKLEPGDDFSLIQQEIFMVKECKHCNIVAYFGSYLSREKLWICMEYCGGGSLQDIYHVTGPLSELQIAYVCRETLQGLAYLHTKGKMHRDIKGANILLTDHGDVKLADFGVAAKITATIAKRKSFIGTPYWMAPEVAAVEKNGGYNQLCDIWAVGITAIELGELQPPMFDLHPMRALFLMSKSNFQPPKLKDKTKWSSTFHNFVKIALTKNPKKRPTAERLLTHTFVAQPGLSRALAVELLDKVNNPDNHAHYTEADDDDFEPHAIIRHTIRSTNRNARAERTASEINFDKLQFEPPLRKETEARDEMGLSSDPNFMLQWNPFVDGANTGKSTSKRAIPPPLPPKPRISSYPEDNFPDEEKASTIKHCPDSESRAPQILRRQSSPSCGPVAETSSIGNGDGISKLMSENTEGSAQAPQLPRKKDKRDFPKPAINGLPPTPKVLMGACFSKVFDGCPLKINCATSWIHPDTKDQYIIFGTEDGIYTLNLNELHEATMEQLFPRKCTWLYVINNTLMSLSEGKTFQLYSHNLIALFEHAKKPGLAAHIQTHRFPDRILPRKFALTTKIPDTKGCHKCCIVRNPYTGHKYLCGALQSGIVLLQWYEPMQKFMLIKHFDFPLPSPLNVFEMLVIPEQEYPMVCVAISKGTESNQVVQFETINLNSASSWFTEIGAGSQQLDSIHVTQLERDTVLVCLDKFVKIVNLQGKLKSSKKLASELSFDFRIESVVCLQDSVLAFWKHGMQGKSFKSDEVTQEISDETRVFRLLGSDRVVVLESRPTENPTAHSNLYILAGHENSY
Assay [3] concerns the target T2, Receptor-type tyrosine-protein kinase FLT3 (Homo sapiens, UniProt P36888).
T2 sequence (P36888 whole entry): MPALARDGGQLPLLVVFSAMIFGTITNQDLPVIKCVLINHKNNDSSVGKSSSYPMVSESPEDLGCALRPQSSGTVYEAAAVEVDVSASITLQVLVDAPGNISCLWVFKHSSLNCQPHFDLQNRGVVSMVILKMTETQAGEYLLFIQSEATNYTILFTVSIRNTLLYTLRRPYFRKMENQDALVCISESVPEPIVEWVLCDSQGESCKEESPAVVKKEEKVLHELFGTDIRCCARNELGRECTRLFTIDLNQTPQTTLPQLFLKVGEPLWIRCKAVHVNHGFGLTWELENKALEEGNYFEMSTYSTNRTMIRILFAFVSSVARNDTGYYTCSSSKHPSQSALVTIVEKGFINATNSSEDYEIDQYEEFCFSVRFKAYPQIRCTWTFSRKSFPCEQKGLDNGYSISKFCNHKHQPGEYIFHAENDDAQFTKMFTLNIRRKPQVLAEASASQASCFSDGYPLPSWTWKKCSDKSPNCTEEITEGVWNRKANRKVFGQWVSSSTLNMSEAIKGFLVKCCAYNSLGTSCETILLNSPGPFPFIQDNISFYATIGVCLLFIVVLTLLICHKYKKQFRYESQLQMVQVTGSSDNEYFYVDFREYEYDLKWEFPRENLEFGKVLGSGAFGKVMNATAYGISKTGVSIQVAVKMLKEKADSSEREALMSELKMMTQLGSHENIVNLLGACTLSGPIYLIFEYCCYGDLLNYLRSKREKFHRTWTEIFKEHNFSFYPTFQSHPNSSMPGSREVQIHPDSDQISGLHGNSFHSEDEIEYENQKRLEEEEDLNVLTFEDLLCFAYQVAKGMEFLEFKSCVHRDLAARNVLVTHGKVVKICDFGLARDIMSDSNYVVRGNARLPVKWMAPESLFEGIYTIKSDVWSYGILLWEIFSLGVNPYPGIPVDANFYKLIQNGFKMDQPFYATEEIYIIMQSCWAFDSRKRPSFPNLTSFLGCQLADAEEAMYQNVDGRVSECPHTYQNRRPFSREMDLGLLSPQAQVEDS

Assay [4] deals with T3, Ephrin type-B receptor 6 (Homo sapiens, UniProt O15197).
T3 sequence (O15197 whole entry): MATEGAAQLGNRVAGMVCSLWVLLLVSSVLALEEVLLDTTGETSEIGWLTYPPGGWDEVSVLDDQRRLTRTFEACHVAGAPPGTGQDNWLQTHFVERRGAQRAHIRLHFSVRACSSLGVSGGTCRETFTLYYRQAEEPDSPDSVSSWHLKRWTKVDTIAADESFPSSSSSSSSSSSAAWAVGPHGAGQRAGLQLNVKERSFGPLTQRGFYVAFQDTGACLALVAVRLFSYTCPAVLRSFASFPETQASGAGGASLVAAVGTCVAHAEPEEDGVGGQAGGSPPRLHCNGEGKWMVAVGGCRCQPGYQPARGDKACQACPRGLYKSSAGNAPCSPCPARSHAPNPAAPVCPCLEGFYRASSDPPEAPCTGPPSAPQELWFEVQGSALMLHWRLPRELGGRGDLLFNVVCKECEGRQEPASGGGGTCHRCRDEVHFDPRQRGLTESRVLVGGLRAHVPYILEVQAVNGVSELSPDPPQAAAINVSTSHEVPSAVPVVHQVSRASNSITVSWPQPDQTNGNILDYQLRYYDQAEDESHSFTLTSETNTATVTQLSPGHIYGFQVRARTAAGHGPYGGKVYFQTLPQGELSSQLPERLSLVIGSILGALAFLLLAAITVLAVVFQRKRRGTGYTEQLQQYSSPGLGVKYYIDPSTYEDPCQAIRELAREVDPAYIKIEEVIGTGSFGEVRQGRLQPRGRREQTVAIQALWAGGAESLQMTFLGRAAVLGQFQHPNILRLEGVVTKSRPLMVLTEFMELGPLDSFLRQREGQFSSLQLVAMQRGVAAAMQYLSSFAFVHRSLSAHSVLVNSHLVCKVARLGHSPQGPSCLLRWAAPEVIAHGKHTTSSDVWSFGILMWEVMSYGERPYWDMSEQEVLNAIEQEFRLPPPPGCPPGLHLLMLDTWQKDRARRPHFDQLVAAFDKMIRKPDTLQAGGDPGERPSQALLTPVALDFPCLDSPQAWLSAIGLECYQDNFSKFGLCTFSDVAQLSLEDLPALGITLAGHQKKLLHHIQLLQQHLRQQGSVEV

Where a name gives a salt, the structure may show the parent alone. Calls of active or inactive are those of the source. Rule as the data show it: actives have a measured Kd and inactives only a lower limit.
Also: in the data inactive means no Kd found up to 30 µM.

In general, Kd refers to the equilibrium constant for the complex coming apart. Consider `Cc1cc(C(=O)NOCCO)c(Nc2ccc(I)cc2F)n(C)c1=O` [AZD-8330], for which the Kd in assay [1], in assay [2], in assay [3] and in assay [4] was > 30 µM (inactive) throughout.
As for `Cn1cnc2c(F)c(Nc3ccc(Br)cc3F)c(C(=O)NOCCO)cc21` [BINIMETINIB], the Kd in assay [1], in assay [2], in assay [3] and in assay [4] was > 30 µM (inactive) in each case.
`CCn1c(C(=O)N(C2CC2)C2CC2)cc2c3c(ncn3C)c(Nc3cc(C)n(C)n3)nc21` [BMS-911543]: the Kd in assay [1], in assay [2], in assay [3] and in assay [4] was > 30 µM (inactive) throughout.
For the compound `COc1cc2ncnc(Oc3cccc(NC(=O)Nc4cc(C(C)(C)C(F)(F)F)on4)c3)c2cc1OC` [CEP-32496], the Kd in assay [1] was 0.183 µM (active); in assay [2], 20.1 µM (active); in assay [3], 0.55 µM (active); in assay [4], > 30 µM (inactive).
For the compound `Cc1cc(Nc2ncc(Cl)c(Nc3ccccc3S(=O)(=O)C(C)C)n2)c(OC(C)C)cc1C1CCNCC1` [CERITINIB], the Kd in assay [1] was > 30 µM (inactive); in assay [2], > 30 µM (inactive); in assay [3], 4.26 µM (active); in assay [4] it was > 30 µM (inactive).
Turning to `COc1c(OCCCN2CCOCC2)ccc2c1N=C(NC(=O)c1cnc(N)nc1)N1CCN=C21` [COPANLISIB], the Kd in assay [1], in assay [2], in assay [3] and in assay [4] was > 30 µM (inactive) each time.
Consider `COCC(=O)NC/C=C/c1ccc2ncnc(Nc3ccc(Oc4ccc(C)nc4)c(C)c3)c2c1` [CP-724714], for which the Kd in assay [1], in assay [2], in assay [3] and in assay [4] was > 30 µM (inactive) in each case.
Take `C#Cc1cccc(Nc2ncnc3cc(OC)c(OCCCCCCC(=O)NO)cc23)c1` [CUDC-101]: the Kd in assay [1], in assay [2], in assay [3] and in assay [4] was > 30 µM (inactive) each time.
With `CCS(=O)(=O)N1CCN(c2ccc(Nc3ncc(C(N)=O)c(NC4CC4)n3)cc2)CC1` [Cerdulatinib Hydrochloride], the Kd in assay [1] was > 30 µM (inactive); in assay [2], 19.2 µM (active); in assay [3] it was 1.5 µM (active); in assay [4], > 30 µM (inactive).
Turning to `Cc1nc2cc(-n3ncc(C(=O)c4cc5ccccc5[nH]4)c3N)ccc2[nH]1` [FGFR INHIBITOR DEBIO 1347], the Kd is > 30 µM (inactive) in assay [1], > 30 µM (inactive) in assay [2], > 30 µM (inactive) in assay [3] and 0.007 µM in assay [4].
Consider `O=C(Nc1nc2cccc(-c3ccc(CN4CCS(=O)(=O)CC4)cc3)n2n1)C1CC1` [FILGOTINIB], for which the Kd in assay [1], in assay [2], in assay [3] and in assay [4] was > 30 µM (inactive) each time.
In the case of `Cc1cccc(-c2nn3c(c2-c2ccnc4ccc(C(N)=O)cc24)CCC3)n1` [GALUNISERTIB], the Kd in assay [1], in assay [2], in assay [3] and in assay [4] was > 30 µM (inactive) throughout.
As for `COc1ccc(S(=O)(=O)N(C(C)=O)c2ccccc2/C=C/c2cc[n+]([O-])cc2)cc1` [HMN-214], the Kd in assay [1], in assay [2], in assay [3] and in assay [4] was > 30 µM (inactive) throughout.
As to `CNC(=O)c1cccc2cc(Oc3ccnc4cc(OCC5(N)CC5)c(OC)cc34)ccc12` [LUCITANIB], the Kd in assay [1] is 0.094 µM (active); in assay [2] it was > 30 µM (inactive); in assay [3], > 30 µM (inactive); in assay [4], > 30 µM (inactive).
